The values below come from patent US8288554B2, “Pyridin-3-yl derivatives as immunomodulating agents” (Actelion Pharmaceuticals Ltd., priority 2006, dated 2012).

Chain of recombinant human S1P1 receptor (P21453 whole entry): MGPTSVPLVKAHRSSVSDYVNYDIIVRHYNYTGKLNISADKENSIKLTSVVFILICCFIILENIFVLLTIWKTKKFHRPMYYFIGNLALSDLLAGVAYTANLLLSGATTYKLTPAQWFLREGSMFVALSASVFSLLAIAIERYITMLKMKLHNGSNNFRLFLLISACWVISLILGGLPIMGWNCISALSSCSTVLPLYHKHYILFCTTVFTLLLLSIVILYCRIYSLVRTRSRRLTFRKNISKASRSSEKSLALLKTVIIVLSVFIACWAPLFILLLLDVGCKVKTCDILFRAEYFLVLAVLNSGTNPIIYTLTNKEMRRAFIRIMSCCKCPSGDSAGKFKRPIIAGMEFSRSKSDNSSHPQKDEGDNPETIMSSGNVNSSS

One assay addresses recombinant human S1P1 receptor (Homo sapiens, UniProt P21453). Kind of assay: GTPγS assay to determine EC50 values. The settings on record: agonist-induced 35S-GTPγS binding, membranes of CHO cells expressing recombinant human S1P1 receptor. It is filed as biochemical. As for the experimental part:
GTPγS binding assays are performed in 96 well microtiter plates (Nunc, 442587) in a final volume of 200 μl, using membrane preparations of CHO cells expressing recombinant human S1P1 receptor. Assay conditions are 20 mM Hepes (Fluka, 54461), 100 mM NaCl (Fluka, 71378), 5 mM MgCl2 (Fluka, 63064), 0.1% BSA (Calbiochem, 126609), 1 μM GDP (Sigma, G-7127), 2.5% DMSO (Fluka, 41644), […] ^35S-GTPγS (Amersham Biosciences, SJ1320). The pH is 7.4. Test compounds are dissolved and diluted in 100% DMSO and pre-incubated at room temperature for 30 min in 150 μl of the above assay buffer, in the absence of ^35S-GTPγS. After addition of 50 μl of ^35S-GTPγS, the assay is incubated for 1 h at rt. The assay is terminated by transfer of the reaction mixture to a Multiscreen plate (Millipore, MAHFC1H60) using a cell harvester from Packard Biosciences, and the plates are washed with ice-cold 10 mM Na2HPO4/NaH2PO4 (70%/30%), dried, sealed at the bottom and, after addition of 25 μl MicroScint20 (Packard Biosciences, order#6013621), sealed on the top. Membrane-bound ^35S-GTPγS is measured with a TopCount from Packard Biosciences.
EC50 is the concentration of agonist inducing 50% of the maximal specific ^35S-GTPγS binding. Specific binding is determined by subtracting non-specific binding from maximal binding. Maximal binding is the amount of cpm bound to the Multiscreen plate in the presence of 10 μM of S1P. Non-specific binding is the amount of binding in the absence of an agonist in the assay.
With `Cc1cc(-c2nc(-c3cc(C)c(OCC(O)CNC(=O)CO)c(C)c3)no2)cnc1CC(C)C` (racemic) [Example 5, 2-Hydroxy-N—((RS)-2-hydroxy-3-{4-[5-(6-isobutyl-5-methyl-pyridin-3-yl)-[1,2,4]oxadiazol-3-yl]-2,6-dimethyl-phenoxy}-propyl)-acetamide], the EC50 (commonly the concentration that produces a half-maximal response) came to 2.7 nM. For `CCc1cc(-c2noc(-c3cnc(OC(C)C)c(C)c3)n2)cc(C)c1CCC(=O)NCCO` [Example 89, 3-{2-Ethyl-4-[5-(6-isopropoxy-5-methyl-pyridin-3-yl)-[1,2,4]oxadiazol-3-yl]-6-methyl-phenyl}-N-(2-hydroxy-ethyl)-propionamide], the EC50 is 3.5 nM. Consider `Cc1cc(-c2nc(-c3cc(C)c(OCC(O)CNC(=O)CO)c(Cl)c3)no2)cnc1CC(C)C` (stereo not shown) [Example 42], for which the EC50 worked out at 0.6 nM. In the case of `COc1cc(-c2noc(-c3cnc(CC(C)C)c(C)c3)n2)cc(Cl)c1OCC(O)CNC(=O)CO` (stereo not shown) [Example 43], the EC50 turned out to be 4 nM. Still for that read-out and setting: then `CCc1cc(-c2nc(-c3cnc(OC(C)C)c(C)c3)no2)cc(C)c1OC[C@@H](O)CO` [Example 92], with 5.1 nM.

Turning to `CCc1cc(-c2noc(-c3cnc(OC(C)C)c(C)c3)n2)cc(C)c1OC[C@@H](O)CNC(=O)CO` [Example 88], the EC50 came to 0.1 nM. Regarding `Cc1cc(-c2noc(-c3cnc(OC(C)C)c(Cl)c3)n2)cc(C)c1OCC(O)CO` (racemic) [Example 1, (RS)-3-{4-[5-(5-chloro-6-isopropoxy-pyridin-3-yl)-[1,2,4]oxadiazol-3-yl]-2,6-dimethyl-phenoxy}-propane-1,2-diol], the EC50 came out at 0.6 nM.

For another assay, the system named is circulating lymphocytes. Kind of assay: Assessment of in vivo efficacy: circulating lymphocytes after oral administration. The settings on record: 6 h after oral administration of 10 mg/kg, normotensive male Wistar rats, compared to vehicle group. Also noted: species or system rat. As to the method:
The efficacy of the compounds of Formula (I) is assessed by measuring the circulating lymphocytes after oral administration of 3 to 30 mg/kg of a compound of Formula (I) to normotensive male Wistar rats. The animals are housed in climate-controlled conditions with a 12 h-light/dark cycle, and have free access to normal rat chow and drinking water. Blood is collected before and 3, 6 and 24 h after drug administration. Full blood is subjected to hematology using Advia Hematology system (Bayer Diagnostics, Zurich, Switzerland).
All data are presented as mean±SEM. Statistical analyses are performed by analysis of variance (ANOVA) using Statistica (StatSoft) and the Student-Newman-Keuls procedure for multiple comparisons. The null hypothesis is rejected when p<0.05.
Lymphocyte counts 6 h after oral administration have been measured for 6 exemplified compounds and are in the range of −77% to −61% with an average of −68%.
On to `CCc1cc(-c2noc(-c3cnc(CC(C)C)c(C)c3)n2)cc(C)c1OCC(O)CNC(=O)CO` (racemic) [Example 8, N—((RS)-3-{2-Ethyl-4-[5-(6-isobutyl-5-methyl-pyridin-3-yl)-[1,2,4]oxadiazol-3-yl]-6-methyl-phenoxy}-2-hydroxy-propyl)-2-hydroxy-acetamide], for which the Lymphocyte counts is −61%. `Cc1cc(-c2noc(-c3cnc(CC(C)C)c(CC(C)C)c3)n2)cc(C)c1OCC(O)CO` (racemic) [Example 12, (RS)-3-{4-[5-(5,6-Diisobutyl-pyridin-3-yl)-[1,2,4]oxadiazol-3-yl]-2,6-dimethyl-phenoxy}-propane-1,2-diol]: the Lymphocyte counts is reported as −61%. On the same count and under the same terms, then `Cc1cc(-c2noc(-c3cnc(OC(C)C)c(Cl)c3)n2)cc(C)c1OCC(O)CNC(=O)CO` (racemic) [Example 3, N—((RS)-3-{4-[5-(5-chloro-6-isopropoxy-pyridin-3-yl)-[1,2,4]oxadiazol-3-yl]-2,6-dimethyl-phenoxy}-2-hydroxy-propyl)-2-hydroxy-acetamide], with −71%.
